Reference: publication PMC12707362, “Targeting Aurora Kinases as Essential Cell‐Cycle Regulators to Deliver Multi‐Stage Antimalarials Against Plasmodium Falciparum” (Angewandte Chemie (International Ed. in English), 2025)
Where two headings read alike, the source gives them in different places.

Experiments:
recombinant PfArk3 = experiment: KinaseSeeker three-hybrid split-luciferase competitive binding assay, PfArk3; set-up: species or system Plasmodium falciparum; details: single point 1 µM
Procedure: Supplementary Figure S3: (A) Single-point activity profile of selected inhibitors at 1 µM against recombinant PfArk-1 and PfArk-3 proteins, utilising a three-hybrid split-luciferase competitive binding assay (KinaseSeeker™).

PfNF54 schizonts = experiment: Stage-specific morphological evaluation, nuclei count per schizont; format: cell-based, Plasmodium falciparum; details: TAE684 3xIC50, hesperadin IC99; n = 30
Procedure: Nuclei content was detected by consecutive staining with SYBR Green I (DNA fluorescence), detected in the FITC channel.
To determine the stage specificity during asexual intra-erythrocytic development, P. falciparum NF54 parasites were synchronised using 5% D-Sorbitol to obtain a >90% ring-stage population (6–10 h post-invasion, hpi). […] The rate of activity and stage-specificity was monitored morphologically using Giemsa-stained thin smears. Asexual intra-erythrocytic stage parasites were treated at ring, early/late trophozoite, and schizont stages, sampling every 12 h over a 48-hour period. Images were captured using a Nikon Eclipse 50i light microscope adapted with a Nikon camera (Nikon DS-Fi1) and NIS-Elements software. […] Parasite progression was monitored every 12 h over a 48-h period using flow cytometry, as described in^[11]. The IC50 speed assay was conducted as described in^[12]. Briefly, unsynchronised P. falciparum NF54 asexual proliferation was determined using a SYBR Green I proliferation-based assay and expressed as IC50 values as described earlier. Four incubation times were employed for each inhibitor: 96 (standard assay time), 72, 48 and 24 h. IC50 values were obtained from corrected dose-response curves using Graph-Pad Prism v10.5.

[1] = tested on: PfArk2 (PF3D7_0309200) cKD parasites; experiment: Inhibitor susceptibility assay, PfArk2 conditional knockdown line; format: cell-based, Plasmodium falciparum; details: cKD versus control
Procedure: Compound susceptibility assays using P. falciparum Ark1 and Ark2 cKD lines were carried out as previously described^[13]. Ark1 (PF3D7_0605300) and Ark2 (PF3D7_0309200) cKD lines generated by fusing the coding sequence and non-coding RNA aptamer sequences in the 5’- and 3’-UTR, permitting translation regulation using the TetR-DOZI system^[14]. Editing was achieved by CRISPR/SpCas9 using the linear pSN054 vector that contains cloning sites for the left homology region (LHR) and the right homology region (RHR), as well as a gene-specific guide RNA under control of the T7 promoter^[15]. The final constructs were sequence-verified and further confirmed by restriction digests. Transfection into Cas9- and T7 RNA polymerase-expressing NF54 parasites was carried out by pre-loading erythrocytes with the donor vector as previously described^[16]. Parasite culture was maintained continuously in 500 nM anhydrotetracycline (aTc, Sigma-Aldrich 37919) and drug selection with 2.5 μg/mL of Blasticidin S (RPI Corp B12150-0.1) was initiated four days after transfection. Briefly, synchronous ring-stage Ark1 (PF3D7_0605300) and Ark2 (PF3D7_0309200) cKD parasites, as well as a control parasite line expressing an aptamer-regulatable fluorescent protein, were maintained in the presence of high aTc (500 nM) or no aTc and distributed into 384-well polystyrene microplates (Corning). […]

Plasmodium kinases = experiment: Kinobead competitive inhibition; format: binding; details: 10 µM, log2 fold change below -1 versus vehicle
[2] = Protein binding in Albumax II media; format: in vitro ADME; details: bovine
Excerpt: In vitro ADME analysis for logD, kinetic solubility (PBS, pH 7.4), human liver microsome clearance and t1/2, rat hepatocyte clearance and t1/2, and protein binding in Albumax media (simulating the malaria parasite culture media) was all performed as per standard assays by TCG LifeSciences.

[3] = tested on: pool of barcoded drug-resistant P. falciparum parasites (Dd2 and 3D7 backgrounds); format: cell-based, Plasmodium falciparum; details: 3xIC50
Procedure: The pool consisted of 52 lines (Supplementary File S2) in both the Dd2 and 3D7 backgrounds, including wild-type, that were barcoded at the pfpare locus (PF3D7_0709700)^[18], with unique 11-bp barcode sequences. The pool (triplicate cultures of 1 mL) was exposed to 3 xIC50 of each test compound, including the positive control compound halofuginone that targets prolyl tRNA synthetase. Growth of the pool was measured every 2–3 days by flow cytometry (Beckman CytoFlex 5), staining with 1xSYBR Green I and 200 nM MitoTracker Deep Red, and parasitemia maintained within a range <5% parasitemia. At day 14, samples were harvested, lysed with 0.05% saponin and parasite pellets collected. Barcodes were amplified by PCR and quantified by sequencing using an Oxford Nanopore minION. The change in barcode proportion (log2 fold change, LFC) was measured relative to the no-drug control, with LFC>2.5 indicating cross-resistance.

## CCN1CCN(C(=O)Cc2ccc(Nc3ncc(F)c(Nc4ccc(C(=O)Nc5ccccc5Cl)cc4)n3)cc2)CC1 [AAi I, Aurora A Inhibitor I]
Recombinant PfArk3
  inhibition of PfArk3: 40%

## COc1cc(N2CCC(N3CCN(C)CC3)CC2)ccc1Nc1ncc(Cl)c(Nc2ccccc2S(=O)(=O)C(C)C)n1 [TAE684, NVP-TAE684]
PfNF54 schizonts
  number of daughter merozoites per schizont: significant reduction in the number of daughter merozoites
[1]
  change in IC50 in PfArk2 cKD: no change in the IC50 value
Plasmodium kinases
  Plasmodium kinases competed from Kinobeads: three Plasmodium kinases were competed from Kinobeads
[2]
  fraction unbound: 0.2
[3]; line 3D7 (Wild type)
  barcode population Day 14: 5.080
[3]; line 3D7 ABCI3 R2180P
  barcode population Day 14: 2.690
[3]; line 3D7 ACS10 M300I
  barcode population Day 14: 3.200
[3]; line 3D7 ACS11 D648Y
  barcode population Day 14: 0.620
[3]; line 3D7 ATP2 CNV2
  barcode population Day 14: 2.100
[3]; line 3D7 DHFR-TS G378E
  barcode population Day 14: 0.990
[3]; line 3D7 DHFR-TS I403L
  barcode population Day 14: 3.400
[3]; line 3D7 FTb A515T
  barcode population Day 14: 1.770
[3]; line 3D7 MDR2 K840N
  barcode population Day 14: 1.670
[3]; line 3D7 NCR1 A1108T
  barcode population Day 14: 2.230
[3]; line Dd2 (Wild type)
  barcode population Day 14: 5.040
[3]; line Dd2-pol-delta D308A-E310A
  barcode population Day 14: 0.01
[3]; line Dd2 ATP4 G358S
  barcode population Day 14: 1.130
[3]; line Dd2 ATP4 L927V
  barcode population Day 14: 1.370
[3]; line Dd2 ATP4 Q172H
  barcode population Day 14: 3.070
[3]; line Dd2 AcAS A597V
  barcode population Day 14: 0.650
[3]; line Dd2 AcAS T648M
  barcode population Day 14: 2.430
[3]; line Dd2 AsnRS R487S
  barcode population Day 14: 1.530
[3]; line Dd2 CARL I1139K-a
  barcode population Day 14: 0.010
[3]; line Dd2 CARL I1139K-b
  barcode population Day 14: 0.230
[3]; line Dd2 CARL V1103L
  barcode population Day 14: 0.680
[3]; line Dd2 CLK3 H259P
  barcode population Day 14: 1.590
[3]; line Dd2 CPSF Y408S E
  barcode population Day 14: 1.340
[3]; line Dd2 CPSF Y408S S
  barcode population Day 14: 0.580
[3]; line Dd2 CRT M343L
  barcode population Day 14: 2.390
[3]; line Dd2 CSC1 L800P
  barcode population Day 14: 1.280
[3]; line Dd2 DHFR-TS S216R
  barcode population Day 14: 1.710
[3]; line Dd2 DHODH C276Y
  barcode population Day 14: 3.290
[3]; line Dd2 DHODH F227I
  barcode population Day 14: 0.650
[3]; line Dd2 DHODH I263F
  barcode population Day 14: 0.120
[3]; line Dd2 DHODH L531F
  barcode population Day 14: 0.480
[3]; line Dd2 GGPPS S228T
  barcode population Day 14: 0.800
[3]; line Dd2 HSP90 A41S
  barcode population Day 14: 2.760
[3]; line Dd2 IleRS E180D
  barcode population Day 14: 2.660
[3]; line Dd2 IleRS L810F
  barcode population Day 14: 1.180
[3]; line Dd2 IleRS V500A
  barcode population Day 14: 0.960
[3]; line Dd2 MCP D195N
  barcode population Day 14: 0.270
[3]; line Dd2 MCP P214T
  barcode population Day 14: 5.790
[3]; line Dd2 PI4K S743F+H1484Y
  barcode population Day 14: 1.350
[3]; line Dd2 PI4K S1320L+L1418F
  barcode population Day 14: 1.960
[3]; line Dd2 PROTB5 A20V
  barcode population Day 14: 1.090
[3]; line Dd2 PROTB5 M45I
  barcode population Day 14: 1.500
[3]; line Dd2 ProRS L482H
  barcode population Day 14: 6.690
[3]; line Dd2 QRP1 D1863Y
  barcode population Day 14: 5.420
[3]; line Dd2 TyrRS S234C
  barcode population Day 14: 2.590
[3]; line Dd2 UDP-GT F37V
  barcode population Day 14: 0.250
[3]; line Dd2 cytBC1 G33V
  barcode population Day 14: 1.410
[3]; line Dd2 cytBC1 V284L
  barcode population Day 14: 1.550
[3]; line Dd2 eEF2 L755F
  barcode population Day 14: 1.200
[3]; line Dd2 eEF2 Y186N
  barcode population Day 14: 1.260
[3]; line Dd2 kelch13 C580C
  barcode population Day 14: 2.860
[3]; line Dd2 kelch13 C580Y
  barcode population Day 14: 2.440
[3]; line Dd2 kelch13 R539T
  barcode population Day 14: 0.670
